Source: paper PMC5962072, “Structural insights on the efficient catalysis of hydroperoxide reduction by Ohr: Crystallographic and molecular dynamics approaches” (PLoS ONE, 2018)

Biological target: T1, XfOhr (Ohr from Xylella fastidiosa) (Xylella fastidiosa, UniProt Q9PCF4)
T1 construct: gene XF_1827
T1 sequence (Q9PCF4 1-143): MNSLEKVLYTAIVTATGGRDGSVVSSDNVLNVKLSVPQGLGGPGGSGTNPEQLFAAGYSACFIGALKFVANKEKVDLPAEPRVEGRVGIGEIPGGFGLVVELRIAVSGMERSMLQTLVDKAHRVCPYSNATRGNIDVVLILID

NC(=O)CCCC[C@@H](S)CCS [dihydrolipoamide]
lipoamide-lipoamide dehydrogenase peroxidase-coupled assay, NADH decay at 340 nm: XfOhr R19A and XfOhr E51A presented only residual dihydrolipoamide-dependent peroxidase activity
